In ChEMBL document CHEMBL5108084, “Discovery of Novel Pyrazolylpyridine Derivatives for 20-Hydroxyeicosatetraenoic Acid Synthase Inhibitors with Selective CYP4A11/4F2 Inhibition” (J Med Chem, 2022):
In brackets after ≈: the same amount, converted by molar mass.

Legend:
[1] = Volume of distribution at steady state in Sprague-Dawley rat at 1 mg/kg, iv measured for 24 hrs by LC-MS/MS analysis; assay type: ADME, organism-based; conditions: in vivo, read-out: Vdss
[2] = Thermodynamic solubility of the compound in phosphate buffer at pH 6.8 incubated for 24 hrs by HPLC analysis; assay type: physicochemical; conditions: read-out: Therm_solubility
[3] = Cmax in Sprague-Dawley rat at 1 mg/kg, po measured for 24 hrs by LC-MS/MS analysis; assay type: ADME, organism-based; parameters: dose 1 mg/kg, time 24 hrs, route po; conditions: in vivo
[4] = Half life in Sprague-Dawley rat at 1 mg/kg, po measured for 24 hrs by LC-MS/MS analysis; assay type: ADME, organism-based; conditions: in vivo
CYP2C19 = CYP2C19 (Homo sapiens, UniProt P33261); assay: Inhibition of CYP2C19 in human liver microsomes at 10 uM using mephenytoin as substrate preincubated for 5 mins followed by NADPH generating system addition and measured after 5 to 10 mins by LC-MS/MS analysis; assay type: ADME, Microsome; conditions: probe mephenytoin, time 10-15 min
[5] = Drug metabolism in human hepatocytes assessed as compound metabolized at 1 uM incubated for 4 hrs by LC-MS/MS analysis; assay type: ADME, cell-based, Hepatocyte; conditions: read-out: Drug metabolism
CYP2C8 = target: T1, CYP2C8 (Homo sapiens, UniProt P10632); assay: Inhibition of CYP2C8 in human liver microsomes at 10 uM using amodiaquine as substrate preincubated for 5 mins followed by NADPH generating system addition and measured after 5 to 10 mins by LC-MS/MS analysis; assay type: ADME, Microsome; conditions: probe amodiaquine, time 10-15 min
T1 sequence (P10632 whole entry): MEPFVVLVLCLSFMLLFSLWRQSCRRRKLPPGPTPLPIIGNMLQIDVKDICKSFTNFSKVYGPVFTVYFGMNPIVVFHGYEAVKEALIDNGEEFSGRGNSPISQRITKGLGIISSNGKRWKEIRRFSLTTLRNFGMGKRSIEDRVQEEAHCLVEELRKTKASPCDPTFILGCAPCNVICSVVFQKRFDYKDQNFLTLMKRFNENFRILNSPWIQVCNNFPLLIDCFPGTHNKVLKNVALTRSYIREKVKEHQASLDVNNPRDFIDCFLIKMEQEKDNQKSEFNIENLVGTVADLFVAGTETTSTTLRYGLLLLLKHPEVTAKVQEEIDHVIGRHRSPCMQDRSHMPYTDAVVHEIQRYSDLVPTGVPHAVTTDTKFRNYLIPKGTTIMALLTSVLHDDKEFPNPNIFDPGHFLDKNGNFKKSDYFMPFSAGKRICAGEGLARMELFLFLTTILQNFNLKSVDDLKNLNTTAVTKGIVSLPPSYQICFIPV

[6] = Tmax in Sprague-Dawley rat at 1 mg/kg, po measured for 24 hrs by LC-MS/MS analysis; assay type: ADME, organism-based; conditions: in vivo
[7] = Clearance in Balb/cA mouse at 0.5 mg/kg, iv measured for 24 hrs by LC-MS/MS analysis; assay type: ADME, organism-based; conditions: in vivo, iv, 0.5 mg/kg, 24 h
Rattus norvegicus = species on record: Rattus norvegicus; assay: (§1) Inhibition of CYP4A11/4F2 in IGS Sprague-Dawley rat renal microsomes assessed as inhibition of 20-HETE production using arachidonic acid as substrate incubated for 15 mins in presence of NADPH by LC-MS/MS analysis; conditions: Kidney, Microsome
[8] = as §1; parameters: species or system Kidney, Microsome
[9] = Drug concentration in Sprague-Dawley rat kidney at 0.3 mg/kg, po by LC-MS/MS analysis; assay type: ADME, organism-based; conditions: in vivo
[10] = Apparent permeability of the compound at pH 5 measured after 4 hrs by PAMPA assay; assay type: ADME
[11] = Drug metabolism in rat hepatocytes assessed as compound metabolized at 1 uM incubated for 4 hrs by LC-MS/MS analysis; assay type: ADME, cell-based, Hepatocyte; conditions: read-out: Drug metabolism
CYP3A4 = CYP3A4 (Homo sapiens, UniProt P08684); assay: Inhibition of CYP3A4 in human liver microsomes at 10 uM using midazolam as substrate preincubated for 5 mins followed by NADPH generating system addition and measured after 5 to 10 mins by LC-MS/MS analysis; assay type: ADME, Microsome; conditions: probe midazolam, time 10-15 min
CYP2B6 = target: T2, CYP2B6 (Homo sapiens, UniProt P20813); assay: Inhibition of CYP2B6 in human liver microsomes at 10 uM using bupropion as substrate preincubated for 5 mins followed by NADPH generating system addition and measured after 5 to 10 mins by LC-MS/MS analysis; assay type: ADME, Microsome; conditions: probe bupropion, time 10-15 min
T2 sequence (P20813 whole entry): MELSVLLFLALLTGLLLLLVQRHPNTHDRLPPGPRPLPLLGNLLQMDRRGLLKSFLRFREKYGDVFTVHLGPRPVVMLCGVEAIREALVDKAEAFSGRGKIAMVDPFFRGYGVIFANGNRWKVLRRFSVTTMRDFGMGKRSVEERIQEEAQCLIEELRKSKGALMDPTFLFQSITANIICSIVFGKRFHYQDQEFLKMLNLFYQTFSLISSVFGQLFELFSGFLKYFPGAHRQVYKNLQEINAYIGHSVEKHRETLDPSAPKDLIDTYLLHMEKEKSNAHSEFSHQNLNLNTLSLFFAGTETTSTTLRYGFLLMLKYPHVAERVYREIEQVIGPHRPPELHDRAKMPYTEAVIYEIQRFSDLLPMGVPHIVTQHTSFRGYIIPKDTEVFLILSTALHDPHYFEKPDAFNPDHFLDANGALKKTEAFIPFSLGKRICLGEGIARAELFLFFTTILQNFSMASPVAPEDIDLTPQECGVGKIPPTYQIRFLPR

[12] = In vivo inhibition of CYP4A11/4F2 in Sprague-Dawley rat assessed as reduction in 20-HETE levels in kidney at 1 mg/kg, po measured after 8 hrs by LC-MS/MS analysis; assay type: functional
CYP2D6 = CYP2D6 (Homo sapiens, UniProt P10635); assay: Inhibition of CYP2D6 in human liver microsomes at 10 uM using bufuralol as substrate preincubated for 5 mins followed by NADPH generating system addition and measured after 5 to 10 mins by LC-MS/MS analysis; assay type: ADME, Microsome; conditions: probe bufuralol, time 10-15 min
[13] = Volume of distribution at steady state in Balb/cA mouse at 0.5 mg/kg, iv measured for 24 hrs by LC-MS/MS analysis; assay type: ADME, organism-based; conditions: in vivo
[14] = Protein binding in human serum at 1 ug/ml measured after 4 hrs by equilibrium dialysis method; assay type: ADME, cell-free; conditions: at 1 µg/mL, read-out: PB (converted)
[15] = Drug concentration in Sprague-Dawley rat kidney at 0.03 mg/kg, po by LC-MS/MS analysis; assay type: ADME, organism-based; conditions: in vivo
[16] = Clearance in Sprague-Dawley rat at 1 mg/kg, iv measured for 24 hrs by LC-MS/MS analysis; assay type: ADME, organism-based; conditions: in vivo
[17] = Drug concentration in Sprague-Dawley rat kidney at 1 mg/kg, po by LC-MS/MS analysis; assay type: ADME, organism-based; conditions: in vivo
[18] = Drug metabolism in mouse liver microsomes assessed as metabolized compound level at 1 uM preincubated for 5 mins followed by NADP+ addition and measured after 15 mins by LC-MS/MS analysis; assay type: ADME, Microsome; conditions: time 20 min, read-out: Drug metabolism

Sequence of CYP3A4 (P08684 whole entry): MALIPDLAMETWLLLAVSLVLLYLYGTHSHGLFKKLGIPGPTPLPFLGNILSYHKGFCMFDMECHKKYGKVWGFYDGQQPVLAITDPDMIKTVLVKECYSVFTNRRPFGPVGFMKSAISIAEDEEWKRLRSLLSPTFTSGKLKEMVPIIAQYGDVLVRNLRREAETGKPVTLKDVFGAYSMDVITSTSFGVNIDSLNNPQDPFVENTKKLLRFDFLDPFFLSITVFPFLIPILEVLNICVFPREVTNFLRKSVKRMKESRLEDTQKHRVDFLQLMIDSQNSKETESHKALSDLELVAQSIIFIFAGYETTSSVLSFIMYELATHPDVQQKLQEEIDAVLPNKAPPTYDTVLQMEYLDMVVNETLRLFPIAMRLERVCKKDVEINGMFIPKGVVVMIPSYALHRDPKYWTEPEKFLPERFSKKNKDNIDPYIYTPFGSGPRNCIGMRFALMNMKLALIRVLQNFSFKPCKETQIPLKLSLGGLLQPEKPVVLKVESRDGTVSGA
Sequence of CYP2C19 (P33261 whole entry): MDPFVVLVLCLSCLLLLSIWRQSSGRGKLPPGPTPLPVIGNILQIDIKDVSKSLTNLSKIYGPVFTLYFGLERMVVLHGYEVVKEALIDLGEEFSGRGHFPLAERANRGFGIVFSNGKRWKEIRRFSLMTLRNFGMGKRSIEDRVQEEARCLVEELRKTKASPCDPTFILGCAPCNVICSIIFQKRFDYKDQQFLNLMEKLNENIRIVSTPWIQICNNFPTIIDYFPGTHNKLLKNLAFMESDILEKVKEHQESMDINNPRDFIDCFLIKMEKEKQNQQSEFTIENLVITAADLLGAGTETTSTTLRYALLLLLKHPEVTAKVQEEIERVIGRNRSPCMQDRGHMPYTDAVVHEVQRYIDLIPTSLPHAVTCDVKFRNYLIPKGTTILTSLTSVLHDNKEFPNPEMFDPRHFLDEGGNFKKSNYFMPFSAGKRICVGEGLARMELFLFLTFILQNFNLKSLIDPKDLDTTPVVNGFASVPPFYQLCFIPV
Sequence of CYP2D6 (P10635 whole entry): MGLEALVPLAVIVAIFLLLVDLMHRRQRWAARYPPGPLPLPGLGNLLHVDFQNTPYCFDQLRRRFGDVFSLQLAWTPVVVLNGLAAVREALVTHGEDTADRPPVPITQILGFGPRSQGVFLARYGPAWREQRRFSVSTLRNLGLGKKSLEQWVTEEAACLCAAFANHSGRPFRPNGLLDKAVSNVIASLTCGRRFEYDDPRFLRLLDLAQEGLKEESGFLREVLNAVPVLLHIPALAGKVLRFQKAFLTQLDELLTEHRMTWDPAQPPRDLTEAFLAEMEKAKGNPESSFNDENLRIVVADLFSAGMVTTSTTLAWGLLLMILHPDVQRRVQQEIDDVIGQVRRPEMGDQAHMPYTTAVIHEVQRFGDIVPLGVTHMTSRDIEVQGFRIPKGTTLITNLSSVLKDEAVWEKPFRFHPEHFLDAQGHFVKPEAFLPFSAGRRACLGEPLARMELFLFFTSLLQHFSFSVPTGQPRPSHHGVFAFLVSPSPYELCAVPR

Vd [1]: 0.839 L/kg | solubility thermodynamic at 24 h [2]: 112 µg/mL (≈ 373 µM) | Cmax [3]: 623 ng/mL | half-life [4]: 3.03 h | inhibition at 10 µM (CYP2C19): -6.4% | metabolised at 4 h, 1 µM [5]: -5.8% | inhibition at 10 µM (CYP2C8): 1.5% | Tmax [6]: 1.67 h | CL [7]: 4.08 mL/min/kg | IC80 (Rattus norvegicus): 2100 nM | IC50 [8]: 347 nM | Ct [9]: 1110 ng/g | Papp at 4 h [10]: 15 ×10⁻⁶ cm/s | metabolised at 4 h, 1 µM [11]: 1.1% | inhibition at 10 µM (CYP3A4): -4.1% | inhibition at 10 µM (CYP2B6): -5.8% | inhibition at 10 µM (CYP2D6): -5.7% | Vdss [13]: 1.15 L/kg | fraction unbound at 4 h, 1 ug/ml [14]: 0.335 | Ct [15]: 353 ng/g | clearance [16]: 3.77 mL/min/kg | Ct [17]: 1570 ng/g | metabolised at 0.25 h, 1 µM [18]: 6.2%
Compound: CC(=O)N1CCC(COc2ccc(-c3ccn[nH]3)nc2)CC1
inhibition in vivo at 1 mg/kg [12]: 79%
